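Tested at 5 concentrations; 48 h exposure; 96-well plates; endpoints linearly interpolated, else capped at highest concentration. The concentration for 50% growth inhibition is given as GI50. TGI: concentration producing complete growth inhibition.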
Columns and labels:
Assay in all cases: inhibition of tumour cell growth, NCI panel, 48 h
[1] = system: MCF7 breast
[2] = system: A498 renal
[3] = system: HCC-2998 colon
[4] = system: NCI-H460 lung
[5] = system: U251 CNS
[6] = system: UACC-62 melanoma
[7] = system: MDA-MB-435
[8] = system: LOX IMVI melanoma
[9] = system: UO-31 renal
[10] = system: T-47D breast
[11] = system: SK-OV-3 ovarian
[12] = system: RPMI-8226 leukemia
[13] = system: SF-268 CNS
[14] = system: UACC-257 melanoma
[15] = system: SR leukemia
[16] = system: SNB-75 CNS
[17] = system: K-562 leukemia
[18] = system: HCT-116 colon
[19] = system: BT-549 breast
[20] = system: M14 melanoma
[21] = system: 786-0 renal
[22] = system: MOLT-4 leukemia
[23] = system: HCT-15 colon
[24] = system: ACHN renal
[25] = system: MDA-MB-231 breast
[26] = system: HOP-92 NSCLC
[27] = system: HOP-62 NSCLC
[28] = system: PC-3 prostate
[29] = system: NCI-H522 lung
[30] = system: RXF 393 renal
[31] = system: NCI-H226 lung
[32] = system: SNB-19 CNS
[33] = system: NCI-H23 lung
[34] = system: SK-MEL-5 melanoma
[35] = system: OVCAR-4 ovarian
[36] = system: SF-295 CNS
[37] = system: OVCAR-8 ovarian
[38] = system: COLO 205 colon
[39] = system: SN12C renal
[40] = system: SW-620 colon
[41] = system: KM12 colon
[42] = system: SK-MEL-28 melanoma
[43] = system: SK-MEL-2 melanoma
[44] = system: DU-145 prostate
[45] = system: OVCAR-5 ovarian
[46] = system: SF-539 CNS
[47] = system: CCRF-CEM leukemia
[48] = system: HL-60(TB) leukemia
[49] = system: OVCAR-3 ovarian
[50] = system: HS 578T breast
[51] = system: HT29 colon
[52] = system: IGROV1 ovarian
[53] = system: A549 NSCLC
[54] = system: TK-10 renal

Question: How did the GI50 [1] turn out when CO/C=C/C(=O)c1cc2cnc3c(=N)cc(NC(=O)C(C)C)c([nH]1)c23 was run?
Answer: Its GI50 is 18.2 nM.

Question: What about the TGI [1] of the same molecule?
Answer: Its TGI is 1250 nM.

Question: What about the GI50 [2] of the same molecule?
Answer: The GI50 was 100 nM.

Question: What about the TGI [2] of the same molecule?
Answer: Its TGI is 602 nM.

Question: And the GI50 [3]?
Answer: The GI50 was 291 nM.

Question: What about the TGI [3] of the same molecule?
Answer: The TGI was 1630 nM.

Question: And the GI50 [4]?
Answer: The GI50 was 323 nM.

Question: And the TGI [4]?
Answer: The TGI was 11400 nM.

Question: And the GI50 [5]?
Answer: The GI50 was 88.9 nM.

Question: What about the TGI [5] of the same molecule?
Answer: Its TGI is 610 nM.

Question: And the GI50 [6]?
Answer: The GI50 was 40.8 nM.

Question: And the TGI [6]?
Answer: Its TGI is 185 nM.

Question: What about the GI50 [7] of the same molecule?
Answer: The GI50 was 85.2 nM.

Question: And the TGI [7]?
Answer: The TGI was 836 nM.

Question: And the GI50 [8]?
Answer: The GI50 was 69.4 nM.

Question: And the TGI [8]?
Answer: The TGI was 429 nM.

Question: And the GI50 [9]?
Answer: Its GI50 is 16.9 nM.

Question: And the TGI [9]?
Answer: The TGI was 323 nM.

Question: And the GI50 [10]?
Answer: Its GI50 is 9.98 nM.

Question: And the TGI [10]?
Answer: The TGI was 43.9 nM.

Question: And the GI50 [11]?
Answer: The GI50 was 146 nM.

Question: What about the TGI [11] of the same molecule?
Answer: Its TGI is 873 nM.

Question: And the GI50 [12]?
Answer: Its GI50 is 14.9 nM.

Question: And the TGI [12]?
Answer: Its TGI is 90.6 nM.

Question: What about the GI50 [13] of the same molecule?
Answer: Its GI50 is 61.6 nM.

Question: And the TGI [13]?
Answer: Its TGI is 918 nM.

Question: What about the GI50 [14] of the same molecule?
Answer: Its GI50 is 90.1 nM.

Question: What about the TGI [14] of the same molecule?
Answer: Its TGI is 862 nM.

Question: And the GI50 [15]?
Answer: Its GI50 is 48.9 nM.

Question: And the TGI [15]?
Answer: Its TGI is 427 nM.

Question: And the GI50 [16]?
Answer: Its GI50 is 7.63 nM.

Question: And the TGI [16]?
Answer: The TGI was 98.2 nM.

Question: And the GI50 [17]?
Answer: The GI50 was 117 nM.

Question: And the TGI [17]?
Answer: The TGI was 17400 nM.

Question: What about the GI50 [18] of the same molecule?
Answer: The GI50 was 58.5 nM.

Question: What about the TGI [18] of the same molecule?
Answer: Its TGI is 282 nM.

Question: And the GI50 [19]?
Answer: Its GI50 is 23.6 nM.

Question: What about the TGI [19] of the same molecule?
Answer: The TGI was 258 nM.

Question: What about the GI50 [20] of the same molecule?
Answer: The GI50 was 70.3 nM.

Question: And the TGI [20]?
Answer: The TGI was 529 nM.

Question: And the GI50 [21]?
Answer: Its GI50 is 98.1 nM.

Question: And the TGI [21]?
Answer: The TGI was 695 nM.

Question: And the GI50 [22]?
Answer: The GI50 was 15.9 nM.

Question: And the TGI [22]?
Answer: The TGI was 166 nM.

Question: And the GI50 [23]?
Answer: The GI50 was 43.1 nM.

Question: What about the TGI [23] of the same molecule?
Answer: Its TGI is 990 nM.

Question: And the GI50 [24]?
Answer: Its GI50 is 100 nM.

Question: And the TGI [24]?
Answer: The TGI was 1670 nM.

Question: And the GI50 [25]?
Answer: Its GI50 is 88.3 nM.

Question: What about the TGI [25] of the same molecule?
Answer: The TGI was 660 nM.

Question: What about the GI50 [26] of the same molecule?
Answer: The GI50 was 7.96 nM.

Question: What about the TGI [26] of the same molecule?
Answer: Its TGI is 45.6 nM.

Question: What about the GI50 [27] of the same molecule?
Answer: Its GI50 is 84.4 nM.

Question: What about the TGI [27] of the same molecule?
Answer: Its TGI is 1040 nM.

Question: What about the GI50 [28] of the same molecule?
Answer: The GI50 was 18.3 nM.

Question: And the TGI [28]?
Answer: Its TGI is 817 nM.

Question: What about the GI50 [29] of the same molecule?
Answer: Its GI50 is 969 nM.

Question: And the TGI [29]?
Answer: The TGI was 11000 nM.

Question: And the GI50 [30]?
Answer: The GI50 was 30.1 nM.

Question: What about the TGI [30] of the same molecule?
Answer: Its TGI is 246 nM.

Question: And the GI50 [31]?
Answer: The GI50 was 106 nM.

Question: And the TGI [31]?
Answer: The TGI was 1260 nM.

Question: And the GI50 [32]?
Answer: Its GI50 is 148 nM.

Question: What about the TGI [32] of the same molecule?
Answer: Its TGI is 1080 nM.

Question: What about the GI50 [33] of the same molecule?
Answer: Its GI50 is 43.2 nM.

Question: And the TGI [33]?
Answer: The TGI was 1830 nM.

Question: What about the GI50 [34] of the same molecule?
Answer: Its GI50 is 75 nM.

Question: And the TGI [34]?
Answer: The TGI was 183 nM.

Question: What about the GI50 [35] of the same molecule?
Answer: The GI50 was 63.7 nM.

Question: What about the TGI [35] of the same molecule?
Answer: The TGI was 746 nM.

Question: And the GI50 [36]?
Answer: The GI50 was 105 nM.

Question: And the TGI [36]?
Answer: The TGI was 771 nM.

Question: And the GI50 [37]?
Answer: Its GI50 is 113 nM.

Question: What about the TGI [37] of the same molecule?
Answer: The TGI was 1020 nM.

Question: And the GI50 [38]?
Answer: Its GI50 is 135 nM.

Question: And the TGI [38]?
Answer: The TGI was 869 nM.

Question: And the GI50 [39]?
Answer: Its GI50 is 24.6 nM.

Question: What about the TGI [39] of the same molecule?
Answer: Its TGI is 1610 nM.

Question: And the GI50 [40]?
Answer: The GI50 was 74.4 nM.

Question: And the TGI [40]?
Answer: Its TGI is 718 nM.

Question: What about the GI50 [41] of the same molecule?
Answer: Its GI50 is 196 nM.

Question: What about the TGI [41] of the same molecule?
Answer: Its TGI is 1860 nM.

Question: What about the GI50 [42] of the same molecule?
Answer: Its GI50 is 58.7 nM.

Question: What about the TGI [42] of the same molecule?
Answer: The TGI was 509 nM.

Question: And the GI50 [43]?
Answer: The GI50 was 90.7 nM.

Question: And the TGI [43]?
Answer: The TGI was 299 nM.

Question: What about the GI50 [44] of the same molecule?
Answer: The GI50 was 86.4 nM.

Question: And the TGI [44]?
Answer: The TGI was 6350 nM.

Question: And the GI50 [45]?
Answer: Its GI50 is 120 nM.

Question: What about the TGI [45] of the same molecule?
Answer: Its TGI is 7410 nM.

Question: What about the GI50 [46] of the same molecule?
Answer: The GI50 was 59.6 nM.

Question: And the TGI [46]?
Answer: The TGI was 333 nM.

Question: What about the GI50 [47] of the same molecule?
Answer: Its GI50 is 18.4 nM.

Question: What about the TGI [47] of the same molecule?
Answer: The TGI was 4940 nM.

Question: What about the GI50 [48] of the same molecule?
Answer: Its GI50 is 32 nM.

Question: What about the TGI [48] of the same molecule?
Answer: The TGI was 295 nM.

Question: What about the GI50 [49] of the same molecule?
Answer: Its GI50 is 41.8 nM.

Question: And the TGI [49]?
Answer: The TGI was 353 nM.

Question: What about the GI50 [50] of the same molecule?
Answer: Its GI50 is 19.5 nM.

Question: What about the TGI [50] of the same molecule?
Answer: Its TGI is 188 nM.

Question: And the GI50 [51]?
Answer: Its GI50 is 80.1 nM.

Question: What about the TGI [51] of the same molecule?
Answer: The TGI was 721 nM.

Question: And the GI50 [52]?
Answer: The GI50 was 18.7 nM.

Question: And the TGI [52]?
Answer: Its TGI is 138 nM.

Question: And the GI50 [53]?
Answer: Its GI50 is 1520 nM.

Question: What about the TGI [53] of the same molecule?
Answer: Its TGI is 15100 nM.

Question: And the GI50 [54]?
Answer: The GI50 was 26.6 nM.

Question: What about the TGI [54] of the same molecule?
Answer: Its TGI is 258 nM.

Source: PubChem BioAssay (NCI)
